Experimental data as given in patent US20210353595A1, “USE OF MELATONIN IN PREPARATION OF MEDICAMENT FOR INHIBITING AND/OR KILLING BACTERIUM” (priority 2020, published 2021).
Converted amounts (≈) assume the structure as drawn.

Tests used:
Format in all cases: cell-based
Pasteurella multocida [1] = test: Leakage of bacterial cell contents; details: MT 1-10 mg/mL, 12 h
Method: 1 mL of Pasteurella multocida (1×10^9 CFU) at the logarithmic growth stage was added into 100 mL of fresh and sterile Martin broth medium containing different concentrations (1 mg/mL, 2 mg/mL, 3 mg/mL, 4 mg/mL, 6 mg/mL, 8 mg/mL and 10 mg/mL) of MT. Melatonin-free DMSO was used as a solvent control group, ampicillin (100 μg/mL) was used as a positive control group, and bacterial cells were cultured in a shaker at 37° C. and 220 rpm for 12 h. Thereafter, 1 mL of the bacterial solution was taken and centrifuged at 3000 r/min for 10 minutes, and the supernatant and precipitated cells were collected, respectively. At the same time, 2.5 mmol/mL of o-nitrophenyl-β-D-galactopyranoside (ONPG) and Pasteurella multocida were added to detect β-galactosidase. The concentrations of protein, alkaline phosphatase (AKP) and reducing sugar in the supernatant were determined sequentially using respective determination kits. The β-galactosidase in the supernatant was determined by measuring the optical density at 420 nm (OD420). Each experiment was carried out for three times, and each group was set in triplicate.

Enterobacter sakazakii = test: MIC/MBC bacteriostatic and bactericidal test; details: Cronobacter sakazakii
Method: (§1) 1 mL of a fresh suspension of bacteria (1×10^9 CFU) at the logarithmic growth stage was added into 100 mL containing different concentrations (50 mg/mL, 25 mg/mL, 12.5 mg/mL, 6.25 mg/mL, 3.125 mg/mL, 1.5625 mg/mL, 0.78125 mg/mL, 0.390625 mg/mL) of melatonin. A melatonin (MT)-free solution diluted with DMSO was used as a control group. The samples were shaken at 37° C. and a rotation speed of 120 r/min with protection from light for 12 hours, and then subjected to detection of the minimal inhibitory concentration (MIC) of MT on bacteria. Then, 0.1 mL of the aforementioned transparent bacterial solution was pipetted onto a sterilized agar plate of a specific culture medium and coated evenly, incubated in an incubator at 37° C. for 24 hours, and then subjected to detection of the minimum bactericidal concentration (MBC) of MT on pathogens, wherein the minimum concentration of MT at which no bacterium grew was the MBC of MT on pathogens. Each experiment was carried out for 3 times, and each group was set in triplicate.

[2] = system: Salmonella enteritidis (ATCC85090); test: MIC/MBC bacteriostatic and bactericidal test; details: Salmonella enterica
Method: as §1

Pasteurella multocida [3] = test: MIC/MBC bacteriostatic and bactericidal test
Method: as §1

Bacillus cereus = test: MIC/MBC bacteriostatic and bactericidal test
Method: as §1

Mannheimia haemolytica = test: MIC/MBC bacteriostatic and bactericidal test
Method: as §1

Klebsiella pneumoniae = test: MIC/MBC bacteriostatic and bactericidal test
Method: as §1

Acinetobacter baumannii = test: MIC/MBC bacteriostatic and bactericidal test
Method: as §1

Lactobacillus johnsonii = test: MIC/MBC bacteriostatic and bactericidal test
Method: as §1

Pneumococcus = test: MIC/MBC bacteriostatic and bactericidal test
Method: as §1

[4] = system: Escherichia coli C83902 (ATCC72864); test: MIC/MBC bacteriostatic and bactericidal test
Method: as §1

[5] = system: Listeria monocytogenes (ATCC53005); test: MIC/MBC bacteriostatic and bactericidal test
Method: as §1

[6] = system: Avianpathogenic Escherichia coli; test: MIC/MBC bacteriostatic and bactericidal test; details: 12 h
Method: as §1

Pseudomonas aeruginosa = test: MIC/MBC bacteriostatic and bactericidal test
Method: as §1

[7] = system: Staphylococcus aureus (ATCC25923); test: MIC/MBC bacteriostatic and bactericidal test
Method: as §1

Streptococcus pneumoniae = test: MIC/MBC bacteriostatic and bactericidal test
Method: as §1

[8] = system: Bovine meningitic Escherichia coli; test: MIC/MBC bacteriostatic and bactericidal test
Method: as §1

COc1ccc2[nH]cc(CCNC(C)=O)c2c1 [melatonin, N-acetyl-5-methoxytryptamine]
activity of extracellular β-galactosidase (Pasteurella multocida [1]; OD420, FIG. 7): increase | content of extracellular proteins (Pasteurella multocida [1]; supernatant, FIG. 4): increase | content of extracellular alkaline phosphatase (Pasteurella multocida [1]; supernatant, FIG. 6): increase | content of extracellular reducing sugar (Pasteurella multocida [1]; supernatant, FIG. 8): increase | activity of extracellular ATPase (Pasteurella multocida [1]; FIG. 5): increase | MIC (Enterobacter sakazakii; 37° C., 12 hours): 6.25 mg/mL (≈ 26.9 mM) | MBC (Enterobacter sakazakii; agar plate 37° C., 24 hours): 25 mg/mL (≈ 108 mM) | MIC ([2]; 37° C., 12 hours): 12.5 mg/mL (≈ 53.8 mM) | MBC ([2]; agar plate 37° C., 24 hours): 12.5 mg/mL (≈ 53.8 mM) | MIC (Pasteurella multocida [3]; 37° C., 12 hours): 1.56 mg/mL (≈ 6.73 mM) | MBC (Pasteurella multocida [3]; agar plate 37° C., 24 hours, no bacterium grew): 3.12 mg/mL (≈ 13.5 mM) | MIC (Bacillus cereus; 37° C., 12 hours): 6.25 mg/mL (≈ 26.9 mM) | MBC (Bacillus cereus; agar plate 37° C., 24 hours): 12.5 mg/mL (≈ 53.8 mM) | MIC (Mannheimia haemolytica; 37° C., 12 hours): 12.5 mg/mL (≈ 53.8 mM) | MBC (Mannheimia haemolytica; agar plate 37° C., 24 hours): 25 mg/mL (≈ 108 mM) | MIC (Klebsiella pneumoniae; 37° C., 12 hours): 3.12 mg/mL (≈ 13.5 mM) | MBC (Klebsiella pneumoniae; agar plate 37° C., 24 hours): 6.25 mg/mL (≈ 26.9 mM) | MIC (Acinetobacter baumannii; 37° C., 12 hours): 12.5 mg/mL (≈ 53.8 mM) | MBC (Acinetobacter baumannii; agar plate 37° C., 24 hours): 12.5 mg/mL (≈ 53.8 mM) | MIC (Lactobacillus johnsonii; 37° C., 12 hours): 25 mg/mL (≈ 108 mM) | MBC (Lactobacillus johnsonii; agar plate 37° C., 24 hours): 50 mg/mL (≈ 215 mM) | MIC (Pneumococcus; 37° C., 12 hours): 12.5 mg/mL (≈ 53.8 mM) | MBC (Pneumococcus; agar plate 37° C., 24 hours): 25 mg/mL (≈ 108 mM) | MIC ([4]; 37° C., 12 hours): 12.5 mg/mL (≈ 53.8 mM) | MBC ([4]; agar plate 37° C., 24 hours): 25 mg/mL (≈ 108 mM) | MIC ([5]; 37° C., 12 hours): 12.5 mg/mL (≈ 53.8 mM) | MBC ([5]; agar plate 37° C., 24 hours): 50 mg/mL (≈ 215 mM) | MIC [6]: 6.25 mg/mL (≈ 26.9 mM) | MIC (Pseudomonas aeruginosa; 37° C., 12 hours): 12.5 mg/mL (≈ 53.8 mM) | MBC (Pseudomonas aeruginosa; agar plate 37° C., 24 hours): 12.5 mg/mL (≈ 53.8 mM) | MIC ([7]; 37° C., 12 hours): 50 mg/mL (≈ 215 mM) | MBC ([7]; agar plate 37° C., 24 hours): 50 mg/mL (≈ 215 mM) | MIC (Streptococcus pneumoniae; 37° C., 12 hours): 12.5 mg/mL (≈ 53.8 mM) | MBC (Streptococcus pneumoniae; agar plate 37° C., 24 hours): 25 mg/mL (≈ 108 mM) | MIC ([8]; 37° C., 12 hours): 12.5 mg/mL (≈ 53.8 mM) | MBC ([8]; agar plate 37° C., 24 hours): 12.5 mg/mL (≈ 53.8 mM)
